This assay concerns the target T1, TXA2 receptor (Homo sapiens, UniProt P21731).
T1 construct: human platelet membrane fraction was prepared; from tissue; host or cells: human platelets (membrane fraction from the blood of normal adult donors)
T1 sequence (P21731 1-343): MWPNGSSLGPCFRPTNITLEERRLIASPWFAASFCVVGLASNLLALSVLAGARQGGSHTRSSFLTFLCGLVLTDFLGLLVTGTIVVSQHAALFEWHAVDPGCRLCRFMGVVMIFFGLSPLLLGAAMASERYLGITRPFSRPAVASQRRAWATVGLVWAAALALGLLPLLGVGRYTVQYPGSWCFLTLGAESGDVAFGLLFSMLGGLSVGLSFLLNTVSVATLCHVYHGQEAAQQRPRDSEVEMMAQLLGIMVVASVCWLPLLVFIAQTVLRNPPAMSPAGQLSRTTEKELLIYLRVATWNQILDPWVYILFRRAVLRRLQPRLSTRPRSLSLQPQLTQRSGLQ
Nature of the assay: TXA2 receptor binding assay. The note with it: human platelet membrane fraction; displacement of 2 nM [3H](+)-S-145 sodium salt; 90 min at room temperature; read-out: inhibition activity IC50. The protocol: Blood which was obtained using a plastic syringe contained 3.8% sodium citrate from the vein of normal human (adult male and female) was put into a plastic tube, and after lightly mixing with tumbling, centrifuged at 1800 rpm, for 10 min. at a room temperature to obtain platelet rich plasma (PRP) in supernatant. The PRP was further centrifuged at 2,300 rpm, for 22 min. at a room temperature to obtain platelets. The obtained platelets was homogenized using homogenizer (Ultra-Turrax), and then, centrifuged at 20,000 rpm, for 10 min. at 4° C. to obtain a fraction of platelet membrane. The membrane fraction was subjected to a quantitative assay for a protein to be adjusted to 2 mg/ml, and kept at −80° C. in a freezer until a binding assay is conducted. […]
To 0.2 ml of a binding reaction mixture (50 mM Tris/HCl, pH 7.4, 10 mM MgCl2), human platelet membrane fraction (0.05 mg) and 26.4 Ci/mmol of 2 nM [^3H](+)-(5Z)-7-[3-endo-[(phenylsulfonyl)amino]bicyclo[2.2.1]hepto-2-exo-yl] heptenic acid sodium salt (Japanese Patent Publication No. H5-79060, referred hereinafter to (+)-S-145 sodium salt) were added, and reacted for 90 min at room temperature. After reaction, the reaction was filtered by using grass fiber filter, washed several times with cold saline, and then, radioactivity remaining on the filter was assayed. […]

Results on two compounds are retold here after patent US20030194748A1, “Method for labeling with tritium” (priority 2000, published 2003).

As a reminder, the IC50 is the concentration that gives 50% inhibition. On to `O=C(O)CCC/C=C\C[C@H]1[C@@H]2CC[C@@H](C2)[C@@H]1NC(=O)c1csc2ccc(O)cc12` [Compound 1], for which the IC50 was 150 nM.
Regarding `COC(=O)CCC/C=C\C[C@H]1[C@@H]2CC[C@@H](C2)[C@@H]1NC(=O)c1cccc2ccsc12` [Compound 2], the IC50 is 3800 nM.
